Test: CLA analysis immediately after the processing step (pelleting / extrusion)
Assay type: physicochemical
Description: Preparation of the meal: Corn and extracted soybean meal were weighed in together, ground and mixed in a horizontal mixer. Lutalin or Lutrell were added and mixed in. The mixing time amounted to 15 minutes. These two mixtures were divided in each case. 80 kg were pelleted and 30 kg were extruded.
Pelleting press: Manufacturer Simon Heesen, horizontal die, 3.3×35 mm, nominal capacity 300 kg/hr. Extruder: Werner & Pfleiderer 37, die 2×0 3.9 mm, nominal capacity up to 50 kg/hr. Pelleting: Pelleting temperatures of 67-68.5° C. were reached. Extrusion: An extrusion temperature of 85° C. was reached, approximately 14% of water having been added. A residual moisture of 10 to 12% has been found in the end product.

conjugated linoleic acid [CLA]
activity loss on extrusion (extrusion temperature 85° C.): approx. 40% | survival of the pelleting process (pelleting 67-68.5° C., in words): survived the pelleting process very well

Source: patent US20200268005A1, “PELLETED RUMINANT FEED ENRICHED WITH RUMEN-AVAILABLE INGREDIENTS” (BASF SE, priority 2014, published 2020)
